Test results as given in patent publication US20250129028A1, “COMPOUNDS AND METHODS FOR YAP/TEAD MODULATION AND INDICATIONS THEREFOR” (Opna Bio SA, priority 2022, published 2025).

These compounds were tested on TEAD-dependent transcription (assay: TEAD-dependent transcription cell-based reporter assay (MSTO-211H+12XGTIIC luciferase)). Settings: Homo sapiens; MSTO-211H+12XGTIIC cell line, luciferase signal normalized to cell viability, 24 hours compound incubation; read-out: MSTO-211H GMean IC50 (uM) Cell Assay Reporter Cell Variant: TEAD.
Design: species or system human
Description: Determine Inhibitor Activity Against TEAD-Dependent Transcription in a Cell-Based Reporter Assay
The human mesothelioma cell line MSTO-211H was stably transfected with a pGL4.21 plasmid containing a synthetic promoter with 12 copies of the GTIIC TEAD response element that drives the expression of a luciferase reporter gene^1 using Lipofectamine transfection reagent (Thermo Fisher). Transfected cells were selected using puromycin and single cell clones expressing this construct (referred to as MSTO-211H+12XGTIIC) were generated by limiting dilution. MSTO-211H cells was characterized by genetic alterations in key components of the Hippo pathway^2, resulting in up-regulation of YAP/TEAD-mediated transcription. […] To evaluate TEAD inhibitors, the MSTO-211H+12XGTIIC cell line was seeded in a 96-well plate in 50 μL of culture media at 1×10^4 cells per well and incubated at 37° C. overnight. Serial dilutions of compounds (in total volume of 50 μL of culture media) were added to the cells and incubated at 37° C. for 24 hours. Each plate included cells treated with DMSO as high controls and cells treated with 20 μM of the reference compound K-975 (a known TEAD inhibitor)^3 as low controls. Cell viability was assayed by the addition of 25 μL of CellTiter-Fluor reagent (Promega) followed by a 30-minute incubation at 37° C. and quantification of the fluorescence signal (Ex400/Em505). Subsequently, luciferase expression was assayed by the addition of 25 μL of ONE-Glo reagent (Promega) followed by a 10-minute incubation at room temperature and quantification of the luminescence signal. The luminescence signal was normalized to the fluorescence signal to correct for any loss in cell viability over the 24-hour compound incubation period. The percentage of inhibition of normalized luminescence signal, indicative of compound-mediated inhibition of TEAD-dependent transcription, at individual compound concentrations relative to high and low controls was calculated. The data were analyzed by using nonlinear regression to generate IC50 values for individual compounds.
With `CN(C)C(=O)CN1CCc2ccc(Oc3ccc(C(F)(F)F)cc3)cc2C1` [P-0027, N,N-dimethyl-2-(7-(4-(trifluoromethyl)phen-oxy)-3,4-dihydroisoquin-olin-2(1H)-yl)acetamide] the IC50 was 0.001 to 10 µM. Compound `CC(=O)N1CCC(c2c(Oc3ccc(C(F)(F)F)cc3)ccc3c2CN(C(=O)CCS(C)(=O)=O)CC3)C1` (stereo not shown) [P-0215, 1-(8-(1-acetylpyrrolidin-3-yl)-7-(4-(trifluorometh-yl)phenoxy)-3,4-dihydro-isoquinolin-2(1H)-yl)-3-(methylsulfonyl)pro-pan-1-one] has an IC50 of 10 to 100 µM. `O=C(CCS(=O)(=O)C(F)(F)F)N1CCc2ccc(Oc3ccc(Cl)cc3)cc2C1` [P-0091, 1-(7-(4-chlorophenoxy)-3,4-dihydroisoquinolin-2(1H)-yl)-3-((trifluoro-methyl)sulfonyl)propan-1-one] was tested, and the IC50 was 0.001 to 10 µM. `Nc1nc(CC(=O)N2CCc3ccc(Oc4ccc(C(F)(F)F)c(F)c4)cc3C2)cs1` [P-0155, 2-(2-aminothiazol-4-yl)-1-(7-(3-fluoro-4-(trifluoromethyl)phen-oxy)-3,4-dihydroisoquin-olin-2(1H)-yl)ethan-1-one] gave an IC50 of 0.001 to 10 µM. `CS(=O)(=O)NCC(=O)N1CCc2ccc(Oc3ccc(C(F)(F)F)cc3)cc2C1` [P-0071, N-(2-oxo-2-(7-(4-(trifluoromethyl)phen-oxy)-3,4-dihydroisoquin-olin-2(1H)-yl)ethyl)-methanesulfonamide] gave an IC50 of 0.001 to 10 µM. `O=C(Cc1ncc[nH]1)N1CCc2ccc(Oc3ccc(C(F)(F)F)cc3)cc2C1` [P-0165, 2-(1H-imidazol-2-yl)-1-(7-(4-(trifluoromethyl)-phenoxy)-3,4-dihydroiso-quinolin-2(1H)-yl)ethan-1-one] was tested, and the IC50 was 0.001 to 10 µM. With `CC(=O)N1CCC(C2c3cc(Oc4ccc(C(F)(F)F)cc4)ccc3CCN2C(=O)CCS(C)(=O)=O)C1` (stereo not shown) [P-0203, 1-(1-(1-acetylpyrrolidin-3-yl)-7-(4-(trifluorometh-yl)phenoxy)-3,4-dihydro-isoquinolin-2(1H)-yl)-3-(methylsulfonyl)-propan-1-one] the IC50 was 0.001 to 10 µM. Work on `CCC(=O)CN1CCc2ccc(Oc3ccc(C(F)(F)F)cc3)cc2C1` [P-0028, 1-(7-(4-(trifluorometh-yl)phenoxy)-3,4-dihydro-isoquinolin-2(1H)-yl)-butan-2-one] yielded an IC50 of 10 to 100 µM. Compound `CS(=O)(=O)c1ccc(C(=O)N2CCc3ccc(Oc4ccc(C(F)(F)F)cc4)cc3C2)cn1` [P-0082, (6-(methylsulfonyl)pyr-idin-3-yl)(7-(4-(trifluoro-methyl)phenoxy)-3,4-dihydroisoquinolin-2(1H)-yl)methanone] has an IC50 of 0.001 to 10 µM. In the case of `CS(=O)(=O)C12CC(C(=O)N3CCc4ccc(Oc5ccc(C(F)(F)F)cc5)cc4C3)(C1)C2` [P-0089, (3-(methylsulfonyl)-bicyclo[1.1.1]pentan-1-yl)(7-(4-(trifluoro-methyl)phenoxy)-3,4-dihydroisoquinolin-2(1H)-yl)methanone], the IC50 is reported as 0.001 to 10 µM. `O=C(Cc1nnn[nH]1)N1CCc2ccc(Oc3ccc(C(F)(F)F)c(F)c3)cc2C1` [P-0148, 1-(7-(3-fluoro-4-(trifluoromethyl)phen-oxy)-3,4-dihydroisoquin-olin-2(1H)-yl)-2-(1H-tetrazol-5-yl)ethan-1-one] gave an IC50 of 0.001 to 10 µM. Compound `CN(C)C(N1CCc2ccc(Oc3ccc(C(F)(F)F)cc3)cc2C1)=[N+](C)C` [P-0156, N-((dimethylamino)(7-(4-(trifluoromethyl)phen-oxy)-3,4-dihydroisoquin-olin-2(1H)-yl)methylene)-N-methylmethanaminium] has an IC50 of 0.001 to 10 µM. `N#CC1CC(C(=O)N2CCc3ccc(Oc4ccc(C(F)(F)F)cc4)cc3C2)C1` (stereo not shown) [P-0042, 3-(7-(4-(trifluorometh-yl)phenoxy)-1,2,3,4-tetrahydroisoquinoline-2-carbonyl)cyclobutane-1-carbonitrile] was tested, and the IC50 was 0.001 to 10 µM. `NC(=O)NCCC(=O)N1CCc2ccc(Oc3ccc(C(F)(F)F)cc3)cc2C1` [P-0096, 1-(3-oxo-3-(7-(4-(trifluoromethyl)phen-oxy)-3,4-dihydroisoquin-olin-2(1H)-yl)propyl)urea] showed an IC50 of 0.001 to 10 µM. In the case of `O=C(NC1CC1)N1CCc2ccc(Oc3ccc(C(F)(F)F)cc3)cc2C1` [P-0004, N-cyclopropyl-7-(4-(trifluoromethyl)phen-oxy)-3,4-dihydroiso-quinoline-2(1H)-carbox-amide], the IC50 is reported as 0.001 to 10 µM. With `O=S(=O)(C1CC1)N1CCc2ccc(Oc3ccc(C(F)(F)F)cc3)cc2C1` [P-0006, 2-(cyclopropylsulfonyl)-7-(4-(trifluoromethyl)-phenoxy)-1,2,3,4-tetra-hydroisoquinoline] the IC50 was 0.001 to 10 µM. Work on `C=C(C)OC(=O)N1CCc2ccc(Oc3ccc(C(F)(F)F)cc3)cc2C1` [P-0036, prop-1-en-2-yl 7-(4-(trifluoromethyl)phen-oxy)-3,4-dihydroiso-quinoline-2(1H)-carbox-ylate] yielded an IC50 of 0.001 to 10 µM. In the case of `CS(=N)(=O)CCC(=O)N1CCc2ccc(Oc3ccc(C(F)(F)F)cc3)cc2C1` (stereo not shown) [P-0055, imino(methyl)(3-oxo-3-(7-(4-(trifluoromethyl)-phenoxy)-3,4-dihydroiso-quinolin-2(1H)-yl)prop-yl)-16-sulfanone], the IC50 is reported as 0.001 to 10 µM. In the case of `CNC(=O)c1cccc(N2CCc3ccc(Oc4ccc(C(F)(F)F)cc4)cc3C2)n1` [P-0229, N-methyl-6-(7-(4-(trifluoromethyl)phen-oxy)-3,4-dihydroisoquin-olin-2(1H)-yl)picolin-amide], the IC50 is reported as 0.001 to 10 µM. `CC(C)(O)CC(=O)N1CCc2c(cccc2Oc2ccc(C(F)(F)F)cc2)C1` [P-0264, 3-hydroxy-3-methyl-1-(5-(4-(trifluoromethyl)-phenoxy)-3,4-dihydroiso-quinolin-2(1H)-yl)butan-1-one] showed an IC50 of 0.001 to 10 µM. With `C=CC(=O)N1CCC(C(=O)N2CCc3ccc(Oc4ccc(C(F)(F)F)c(F)c4)cc3C2)CC1` [P-0121, 1-(4-(7-(3-fluoro-4-(trifluoromethyl)phen-oxy)-1,2,3,4-tetrahydro-isoquinoline-2-carbon-yl)piperidin-1-yl)prop-2-en-1-one] the IC50 was 0.001 to 10 µM. With `N#Cc1nc(N2CCc3ccc(Oc4ccc(C(F)(F)F)cc4)cc3C2)cs1` [P-0134, 4-(7-(4-(trifluorometh-yl)phenoxy)-3,4-dihydro-isoquinolin-2(1H)-yl)thi-azole-2-carbonitrile] the IC50 was 0.001 to 10 µM. `C[C@H](NC(=O)N1CCc2c(cccc2Oc2ccc(C(F)(F)F)cc2)C1)C1CC1` [P-0265, (S)-N-(1-cyclopropyl-ethyl)-5-(4-(trifluoro-methyl)phenoxy)-3,4-dihydroisoquinoline-2(1H)-carboxamide] gave an IC50 of 0.001 to 10 µM. Compound `O=C(CCO)N1CCc2ccc(Oc3ccc(C(F)(F)F)cc3)cc2C1` [P-0067, 3-hydroxy-1-(7-(4-(trifluoromethyl)phen-oxy)-3,4-dihydroiso-quinolin-2(1H)-yl)-propan-1-one] has an IC50 of 0.001 to 10 µM. `Nc1nc(C(=O)N2CCc3c(cccc3-c3ccc(C(F)(F)F)cc3)C2)cs1` [P-0274] showed an IC50 of 0.001 to 10 µM. `CS(=O)(=O)c1ccnc(N2CCc3ccc(Oc4ccc(C(F)(F)F)cc4)cc3C2)c1` [P-0227, 2-(4-(methylsulfonyl)pyr-idin-2-yl)-7-(4-(trifluoro-methyl)phenoxy)-1,2,3,4-tetrahydroisoquinoline] was tested, and the IC50 was 0.001 to 10 µM. `N#CCCC(=O)N1CCc2c(cccc2Oc2ccc(C(F)(F)F)cc2)C1` [P-0239, 4-oxo-4-(5-(4-(trifluoromethyl)phenoxy)-3,4-dihydroisoquinolin-2(1H)-yl)butanenitrile] showed an IC50 of 0.001 to 10 µM. With `C=CC(=O)Nc1ncc(CC(=O)N2CCc3ccc(Oc4ccc(C(F)(F)F)c(F)c4)cc3C2)s1` [P-0163, N-(5-(2-(7-(3-fluoro-4-(trifluoromethyl)phen-oxy)-3,4-dihydroisoquin-olin-2(1H)-yl)-2-oxoeth-yl)thiazol-2-yl)acrylamide] the IC50 was 0.001 to 10 µM. `CS(=O)(=O)CCC(=O)N1CCc2ccc(Oc3ccc(C(F)(F)F)cc3)cc2C1C1CCN(C(=O)C2CC2)CC1` (stereo not shown) [P-0210, 1-(1-(1-(cyclopropanecarbonyl)piperidin-4-yl)-7-(4-(trifluoromethyl)phenoxy)-3,4-dihydroisoquinolin-2(1H)-yl)-3-(methylsulfonyl)propan-1-one] showed an IC50 of 0.001 to 10 µM. Compound `NC(=O)c1ccc(C(=O)N2CCc3ccc(Oc4ccc(C(F)(F)F)cc4)cc3C2)cn1` [P-0127, 5-(7-(4-(trifluorometh-yl)phenoxy)-1,2,3,4-tetrahydroisoquinoline-2-carbonyl)picolinamide] has an IC50 of 0.001 to 10 µM.

Same assay, conditions: MSTO-211H+12XGTIIC cell line, luciferase signal normalized to cell viability, 24 hours compound incubation; read-out: MSTO-211H GMean IC50 (uM) Cell Assay Reporter Cell Variant: TEAD
Compound `C=CC(=O)N1CCC(C2c3cc(Oc4ccc(C(F)(F)F)cc4)ccc3CCN2C(=O)CCS(C)(=O)=O)C1` (single isomer, unassigned) [P-0218, 1-(3-(2-(3-(methylsulfonyl)propanoyl)-7-(4-(trifluoromethyl)phenoxy)-1,2,3,4-tetrahydroisoquinolin-1-yl)pyrrolidin-1-yl)prop-2-en-1-one] has an IC50 of 0.001 to 10 µM.
